Experimental data taken from patent US4002733A, “Sunscreening compositions” (Minnesota Mining and Manufacturing Company, priority 1974, dated 1977).

Assay: UV absorption of the product in solution (absorption maximum, Epsilon value)
Assay type: physicochemical
Conditions: solvent not stated

absorption maxima: 292 nm
molar extinction coefficient (Epsilon value): 48,000
SMILES: CCC(=O)c1ccc(NC(=O)CCCCCCCCC(=O)Nc2ccc(C(=O)CC)cc2)cc1 [Example 4]
